Molecules are shown by their SMILES.

In this experiment the target is R132H mutant IDH1 enzyme (Homo sapiens (Human), UniProt O75874, R132H). As to the kind of experiment: R132H IDH1 Enzymatic Assay. Particulars: 1.5 nM final, 30 min preincubation, 60 min reaction, Kinase-GLO luminescence. Type of experiment: biochemical. On the technique in general: Kinase-Glo reads ATP consumption through a luciferase reaction.
R132H mutant IDH1 enzyme, sequence (O75874 whole entry R132H): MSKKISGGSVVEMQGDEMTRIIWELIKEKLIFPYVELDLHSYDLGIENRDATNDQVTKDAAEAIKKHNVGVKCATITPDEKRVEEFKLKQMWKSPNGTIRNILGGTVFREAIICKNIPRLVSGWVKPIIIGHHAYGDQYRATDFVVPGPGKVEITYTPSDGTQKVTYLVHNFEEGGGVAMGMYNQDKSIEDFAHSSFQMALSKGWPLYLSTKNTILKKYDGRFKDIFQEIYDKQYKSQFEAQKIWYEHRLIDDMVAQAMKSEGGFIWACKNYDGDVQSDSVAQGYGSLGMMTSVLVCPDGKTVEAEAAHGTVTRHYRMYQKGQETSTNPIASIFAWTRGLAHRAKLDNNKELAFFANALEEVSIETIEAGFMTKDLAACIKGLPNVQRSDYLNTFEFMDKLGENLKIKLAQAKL
What is called IC50 is the point on the concentration scale where inhibition reaches its midpoint. Read a low IC50 as greater potency in that assay. `Cc1cnc2c(c1)CN(C(=O)[C@H]1CC[C@H](OC(C)C)CC1)c1cc(N3C[C@@H]4CC[C@H]3CO4)ccc1N2` [Example 69, (8-((1S,4S)-2-Oxa-5-azabicyclo[2.2.2]octan-5-yl)-3-methyl-5,11-dihydro-6H-benzo[b]pyrido[2,3-e][1,4]diazepin-6-yl)(trans-4-isopropoxycyclohexyl)methanone] displayed an IC50 of 103 nM. Turning to `CC(C)O[C@H]1CC[C@H](C(=O)N2Cc3cc(S(C)(=O)=O)cnc3Nc3ccc(N4C[C@@H]5CC[C@H]4CO5)cc32)CC1` [Example 70, (8-((1S,4S)-2-oxa-5-azabicyclo[2.2.2]octan-5-yl)-3-(methylsulfonyl)-5,11-dihydro-6H-benzo[b]pyrido[2,3-e][1,4]diazepin-6-yl)(trans-4-isopropoxycyclohexyl)methanone], 5750 nM corresponded to half-maximal inhibition (IC50). For `CC(C)O[C@H]1CC[C@H](C(=O)N2Cc3cc(Cl)cnc3Nc3ccc(N4C[C@@H]5CC[C@H]4CO5)cc32)CC1` [Example 71, (8-((1S,4S)-2-Oxa-5-azabicyclo[2.2.2]octan-5-yl)-3-chloro-5,11-dihydro-6H-benzo[b]pyrido[2,3-e][1,4]diazepin-6-yl)(trans-4-isopropoxycyclohexyl)methanone], the IC50 came to 30 nM. `O=C(C1CCN(CC(F)(F)F)CC1)N1Cc2cc(F)cnc2Nc2cc(F)ccc21` [Example 72, (3,9-Difluoro-5,11-dihydro-6H-benzo[b]pyrido[2,3-e][1,4]diazepin-6-yl)(1-(2,2,2-trifluoroethyl)piperidin-4-yl)methanone] returned an IC50 of 160 nM.

`O=C(C1CCN(CC(F)(F)F)CC1)N1Cc2cc(F)cnc2Nc2cc(F)c(N3CC4CCC3CO4)cc21` (stereo not drawn) [Example 73, (8-(2-oxa-5-azabicyclo[2.2.2]octan-5-yl)-3,9-difluoro-5H-benzo[b]pyrido[2,3-e][1,4]diazepin-6(11H)-yl)(1-(2,2,2-trifluoroethyl)piperidin-4-yl)methanone] displayed an IC50 of 10 nM. As for `O=C(C1CCN(CC(F)(F)F)CC1)N1Cc2cccnc2Nc2cc(F)ccc21` [Example 74, (9-Fluoro-5,11-dihydro-6H-benzo[b]pyrido[2,3-e][1,4]diazepin-6-yl)(1-(2,2,2-trifluoroethyl)piperidin-4-yl)methanone], the IC50 was 174 nM.

(Values after patent US10399972B2, “Tricyclic compounds as inhibitors of mutant IDH enzymes” (Merck Sharp & Dohme Corp., priority 2015, dated 2019).)
